In assay [1] the target is T1, LacAB (D-galactose-6-phosphate isomerase) (Lacticaseibacillus rhamnosus, UniProt A0A7S7FMU0+A0ABF7SXF6).
T1 construct: gene LRHM_0645; full-length LacA (142 residues) and LacB (172 residues) co-expressed in E. coli BL21(DE3), pQE-80L, N-terminal His6
Briefly: X-ray crystal structure, soaking. The class given is binding. To be noted: converted in the crystal, active site.

Assay [2] deals with T1, LacAB (D-galactose-6-phosphate isomerase). Briefly: conversion to D-psicose in soaked crystal. In kind it is binding. The note with it: 40 mM soak for 2 hr; D-psicose seen in the electron density.
Assay [3] deals with D-galactose-6-phosphate isomerase LacAB from Lactobacillus rhamnosus (heterodimer of LacA and LacB) (Lactobacillus rhamnosus). In words: SEC-MALS; purified LacAB on Superdex 200 10/300 GL, 50 mM Tris-HCl pH 7.5, 200 mM NaCl, 1 mL/min.

Experimental findings from publication PMC3755991, “Crystal Structure and Substrate Specificity of D-Galactose-6-Phosphate Isomerase Complexed with Substrates” (PLoS ONE, 2013) are described below.

Usually stoichiometry N stands for a count of units in the complex or per binding partner.

Turning to `OCC1(O)OC[C@@H](O)[C@@H](O)[C@H]1O` (stereo partly drawn) [D-psicose], the “X-ray crystal structure, soaking” value in assay [1] (crystal soaked in 40 mM D-allose for 2 hr) is on record as 4LFM for its complex with D-psicose.
For the compound `OC[C@H]1OC(O)[C@H](O)[C@H](O)[C@@H]1O` (stereo partly drawn) [D-allose], the “conversion to D-psicose in soaked crystal” value in assay [2] was “D-allose and D-ribose revealed that the substrates are converted to D-psicose and D-ribulose, respectively”.
As to `O=C(CO)[C@H](O)[C@H](O)CO` [D-ribulose], the “X-ray crystal structure, soaking” value in assay [1] (crystal soaked in 45 mM D-ribose for 2 hr) is given as 4LFN for its complex with D-ribulose.
In turn, “D-galactose-6-phosphate isomerase LacAB from Lactobacillus rhamnosus (heterodimer of LacA and LacB) (from UniProt A0ABF7SXF6 1-172) (complex)” had a stoichiometry N in assay [3] of 4.
